In US10941129B2, “Benzyl phenyl ether derivative, preparation method therefor, and pharmaceutical composition and uses thereof” (Institute of Materia Medica, Chinese Academy of Medical …, priority 2016, dated 2021):

The compounds below were run against interaction between PD-1 and PD-L1 (Homo sapiens (Human), UniProt Q9NZQ7) (assay: Cisbio PD-1/PD-L1 binding assay kit (HTRF)). Settings: read-out: IC50, inhibitory activity at molecular level on the interaction between PD-1 and PD-L1.
Chain of interaction between PD-1 and PD-L1 (Q9NZQ7 19-238): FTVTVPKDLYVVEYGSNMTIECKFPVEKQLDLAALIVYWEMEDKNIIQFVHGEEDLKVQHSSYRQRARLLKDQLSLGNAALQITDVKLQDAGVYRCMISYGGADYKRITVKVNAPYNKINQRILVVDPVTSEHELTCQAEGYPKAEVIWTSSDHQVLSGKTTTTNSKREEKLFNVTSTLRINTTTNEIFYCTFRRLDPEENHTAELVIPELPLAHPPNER
Description: 1. In vitro activity evaluation: Cisbio PD-1/PD-L1 binding assay kit was applied for the detection method of in vitro enzymology level.
1) Principle: PD-1 protein is with HIS tag, and PD-1 ligand PD-L1 is with hFc tag. Eu labeled anti-hFc antibody and XL665 labeled anti-HIS antibody are combined with the above two label proteins respectively. After laser excitation, energy can be transferred from donor Eu to receptor XL665, allowing XL665 to glow.
2) Experimental method: The specific method can be referred to Cisbio's PD-1/PD-L1 Kit (item 64CUS000C-2). Reagents should be dispensed in the following order. For 384-well white ELISA plate, 2 μl of diluent or target compound diluted with diluent was added to each well, and then 4 μl of PD-1 protein and 4 μl of PD-L1 protein were added per well, incubated for 15 min at room temperature; and 10 μl of a mixture of anti-Tag1-Eu3^+ and anti-Tag2-XL665 was added per well and incubated for 1 h to 4 h at room temperature and the fluorescence signals at 665 nm and 620 nm were measured with an Envison instrument. HTRF rate=(665 nm/620 nm)*10^4. 8-10 concentrations were detected for each compound and IC50 was calculated by Graphpad software.
With `COc1ccc(-c2cccc(COc3ccc(CN[C@@H](C)C(=O)O)c(OCc4cccc(C#N)c4)c3)c2Br)cc1OC` [Example 17, N-(4-(2-bromo-3-(3,4-dimethoxyphenyl)benzyloxy)-2-(3-cyanobenzyloxy)benzyl) alanine] the IC50 was 3160 nM.
For `COc1ccc(-c2cccc(COc3ccc(CN[C@@H](CO)C(=O)O)c(OCc4cccc(C#N)c4)c3)c2Br)cc1OC` [Example 13, N-(4-(2-bromo-3-(3,4-dimethoxyphenyl)benzyloxy)-2-(3-cyanobenzyloxy)benzyl) serine], the IC50 was 5350 nM.
`C[C@H](O)[C@@H](NCc1ccc(OCc2cccc(-c3ccc4c(c3)OCCO4)c2Br)cc1OCc1cccc(C#N)c1)C(=O)O` (stereo in doubt) [Example 19, N-(4-(2-bromo-3-(2,3-dihydrobenzo[b][1,4]dioxin-6-yl)benzyloxy)-2-(3-cyanobenzyloxy)benzyl) threonine] showed an IC50 of 18.1 nM.
In the case of `N#Cc1cccc(COc2cc(OCc3cccc(-c4ccccc4)c3Br)ccc2CNCCO)c1` [Example 5, N-hydroxylethyl-4-(2-bromo-3-phenylbenzyloxy)-2-(3-cyanobenzyloxy) benzylamine], the IC50 is reported as 307 nM.
With `COc1ccc(-c2cccc(COc3ccc(CNCCO)c(OCc4cccc(C#N)c4)c3)c2Br)cc1OC` [Example 11, N-hydroxylethyl-4-(2-bromo-3-(3,4-dimethoxyphenyl)benzyloxy)-2-(3-cyanobenzyloxy) benzylamine] the IC50 was 7870 nM.
`N#Cc1cccc(COc2cc(OCc3cccc(-c4ccccc4)c3Br)ccc2CN[C@@H](CO)C(=O)O)c1` [Example 2, N-(4-(2-bromo-3-phenylbenzyloxy)-2-(3-cyanobenzyloxy)benzyl) serine] was tested, and the IC50 was 29.4 nM.
Compound `CS(=O)(=O)c1cccc(COc2cc(OCc3cccc(-c4ccccc4)c3Br)c(Cl)cc2CN[C@H](CO)C(=O)O)c1` (stereo in doubt) [Example 27, N-(4-(2-bromo-3-phenylbenzyloxy)-5-chloro-2-(3-methanesulfonylbenzyloxy)benzyl) serine] has an IC50 of at most 10 nM.
`N#Cc1cccc(COc2cc(OCc3cccc(-c4ccc5c(c4)OCCO5)c3Br)c(Cl)cc2CN2CCCC[C@H]2C(=O)O)c1` [Example 24, (S)—N-(4-(2-bromo-3-(2,3-dihydrobenzo[b][1,4]dioxin-6-yl)benzyloxy)-5-chloro-2-(3-cyanobenzyloxy)benzyl) pipecolinic acid] showed an IC50 of 67.5 nM.
For `C[C@H](O)[C@@H](NCc1ccc(OCc2cccc(-c3ccccc3)c2Br)cc1OCc1cccc(C#N)c1)C(=O)O` (stereo in doubt) [Example 8, N-(4-(2-bromo-3-phenylbenzyloxy)-2-(3-cyanobenzyloxy)benzyl) threonine], the IC50 was 134 nM.
Work on `N#Cc1cccc(COc2cc(OCc3cccc(-c4ccccc4)c3Br)ccc2CN2CCC[C@H]2C(=O)O)c1` [Example 4, N-(4-(2-bromo-3-phenylbenzyloxy)-2-(3-cyanobenzyloxy)benzyl) proline] yielded an IC50 of 59.2 nM.
Work on `N#Cc1cccc(COc2cc(OCc3cccc(-c4ccccc4)c3Br)ccc2CNC2CCOCC2)c1` [Example 9, N-(tetrahydro-2H-pyran-4-yl)-4-(2-bromo-3-phenylbenzyloxy)-2-(3-cyanobenzyloxy) benzylamine] yielded an IC50 of 788 nM.
Work on `C[C@H](NCc1ccc(OCc2cccc(-c3ccccc3)c2Br)cc1OCc1cccc(C#N)c1)C(=O)O` [Example 6, N-(4-(2-bromo-3-phenylbenzyloxy)-2-(3-cyanobenzyloxy)benzyl) alanine] yielded an IC50 of 178 nM.
With `C[C@H](O)[C@@H](NCc1cc(Cl)c(OCc2cccc(-c3ccccc3)c2Br)cc1OCc1cccc(C#N)c1)C(=O)O` (stereo in doubt) [Example 26, N-(4-(2-bromo-3-phenylbenzyloxy)-5-chloro-2-(3-cyanobenzyloxy)benzyl) threonine] the IC50 was at most 10 nM.
`N#Cc1cccc(COc2cc(OCc3cccc(-c4ccc5c(c4)OCCO5)c3Br)ccc2CN[C@@H](CO)C(=O)O)c1` [Example 18, N-(4-(2-bromo-3-(2,3-dihydrobenzo[b][1,4]dioxin-6-yl)benzyloxy)-2-(3-cyanobenzyloxy)benzyl) serine] gave an IC50 of 38.5 nM.
For `CCN(CCO)Cc1ccc(OCc2cccc(-c3ccccc3)c2Br)cc1OCc1cccc(C#N)c1` [Example 3, N-Ethyl-N-hydroxylethyl-4-(2-bromo-3-phenylbenzyloxy)-2-(3-cyanobenzyloxy) benzylamine], the IC50 was 230 nM.
`N#Cc1cccc(COc2cc(OCc3cccc(-c4ccccc4)c3Br)c(Cl)cc2CN[C@@H](CO)C(=O)O)c1` [Example 20, N-(4-(2-bromo-3-phenylbenzyloxy)-5-chloro-2-(3-cyanobenzyloxy)benzyl) serine] showed an IC50 of 2.48 nM.
For `CC(=O)NCCNCc1ccc(OCc2cccc(-c3ccccc3)c2Br)cc1OCc1cccc(C#N)c1` [Example 1, N-acetylaminoethyl-4-(2-bromo-3-phenylbenzyloxy)-2-(3-cyanobenzyloxy) benzylamine], the IC50 was 439 nM.
In the case of `C[C@@H](NCc1cc(Cl)c(OCc2cccc(-c3ccccc3)c2Br)cc1OCc1cccc(C#N)c1)C(=O)O` (stereo in doubt) [Example 25, N-(4-(2-bromo-3-phenylbenzyloxy)-5-chloro-2-(3-cyanobenzyloxy)benzyl)alanine], the IC50 is reported as 3.16 nM.
`CS(=O)(=O)c1cccc(COc2cc(OCc3cccc(-c4ccccc4)c3Br)c(Cl)cc2CN2CCCC[C@H]2C(=O)O)c1` (stereo in doubt) [Example 28, N-(4-(2-bromo-3-phenylbenzyloxy)-5-chloro-2-(3-methanesulfonylbenzyloxy)benzyl) pipecolinic acid] showed an IC50 of at most 10 nM.
With `CSCC[C@H](NCc1ccc(OCc2cccc(-c3ccccc3)c2Br)cc1OCc1cccc(C#N)c1)C(=O)O` [Example 7, N-(4-(2-bromo-3-phenylbenzyloxy)-2-(3-cyanobenzyloxy)benzyl) methionine] the IC50 was 4590 nM.
`COc1ccc(-c2cccc(COc3ccc(CNCCNC(C)=O)c(OCc4cccc(C#N)c4)c3)c2Br)cc1OC` [Example 14, N-acetylaminoethyl-4-(2-bromo-3-(3,4-dimethoxyphenyl)benzyloxy)-2-(3-cyanobenzyloxy) benzylamine] was tested, and the IC50 was 6650 nM.
`CC(=O)NCCNCc1ccc(OCc2cccc(-c3ccc4c(c3)OCCO4)c2Br)cc1OCc1cccc(C#N)c1` [Example 16, N-acetylaminoethyl-4-(2-bromo-3-(2,3-dihydrobenzo[b][1,4]dioxin-6-yl)benzyloxy)-2-(3-cyanobenzyloxy) benzylamine] gave an IC50 of 268 nM.
